tested on: porcine pancreatic elastase-induced inflammation; experiment: Effect on porcine pancreatic elastase-induced inflammation (total cells in BALF); type: in vivo; settings: single transairway dose 1 hour before porcine pancreatic elastase 100 μg/mouse; BALF 24 hours after elastase; ICR mice
Experimental: To 4 to 6-week old ICR mice, a test compound was administered once through the transairway. Porcine pancreatic elastase at 100 μg/mouse was administered 1 hour after the administration of the test compound. Bronchoalveolar lavage fluid (BALF) was collected from the lungs 24 hours after the administration of porcine pancreatic elastase, and the total number of cells was measured.

Q: `O=C(O[C@H]1C[N+]2(CCCc3ccccc3)CCC1CC2)C(O)(c1ccccc1)c1ccccc1` [Compound 1-18] was tested. Which “total number of cells in BALF” value did it give?
A: Its value is “reduced in a dose-dependent manner”.

Q: Which “total number of cells in BALF” value does the source give for `O=C(O[C@@H]1C[N+]2(CCCc3ccccc3)CCC1CC2)C(O)(c1ccccc1)c1ccccc1` [Compound 1-19] here?
A: The value was “reduced in a dose-dependent manner”.

Q: With `O=C(OC1C[N+]2(CCCc3ccccc3)CCC1CC2)C(O)(c1ccccc1)c1ccccc1` (centres unmarked) [Compound 1-20] as the molecule, how does the “total number of cells in BALF” value read?
A: The value was “reduced in a dose-dependent manner”.

Q: `O=C(O[C@H]1C[N+]2(CCCOc3ccccc3)CCC1CC2)C(O)(c1cccs1)c1cccs1` [aclidinium, reference compound] was tested. Which “total number of cells in BALF” value did it give?
A: Its value is “did not show any beneficial anti-inflammatory effects”.

tested on: methacholine-induced airway constriction; experiment: Effect on methacholine-induced airway constriction (airway resistance); type: in vivo; settings: 47.9 μg/kg transairway, when exceeding 96 hours after the administration, ICR mice (FIG. 2)
Experimental: The increase of airway resistance by methacholine induction was measured. To 4 to 6-week old ICR mice, methacholine at 1 mg/mL was administered 5 times by spraying the methacholine for 20 seconds. After completion of the methacholine administration, the airway resistance was measured by a snap shot technique. All of the data were analyzed by using FlexiVent software.
The test compound at 47.9 μg/kg was administered to the mice through the transairway. The mice were exposed 5 times to nebulized methacholine 1 hour, 96 hours, and 120 hours after the administration, and the airway resistance at each time was measured.

Q: For `O=C(O[C@H]1C[N+]2(CCCOc3ccccc3)CCC1CC2)C(O)(c1cccs1)c1cccs1` [aclidinium, reference compound], which “airway resistance after methacholine” value is on record?
A: The value was “did not reduce the airway resistance”.

biological target: T1, human M3 receptor (Homo sapiens, UniProt P20309); experiment: Human M3 receptor antagonist activity, [3H]NMS receptor binding; settings: not given
T1 construct: expressed in transfected cells; host or cells: CHO cells (membrane preparation)
Experimental: Measurement of the receptor binding ability was performed by using a transgenic human M3 receptor expression CHO cell membrane, 1-[N-methyl-^3H] scopolamine methyl bromide ([^3H]NMS, specific activity of 82 Cimmol). Protein concentration of the cell membrane was 2 μg per well, concentration of the [^3H]NMS was 1.0 nM.
Range of the antagonist concentration (10^−4 to 10^−11 M) was tested by creating a comparison curve. Unspecific binding was measured in the presence of 1 μM of atropine.
The reagent was adjusted to a total volume of 100 μL with a binding buffer (phosphate buffer/saline). The mixture was incubated at room temperature for 2 hours so as to reach equilibrium, and then the resultant mixture was transplanted to a GF/C filter plate that had been pretreated with a washing buffer containing 0.05% polyethyleneimine for 1 hour.
The bound [^3H]NMS and the free[^3H]NMS were separated by rapid vacuum filtration, and washed three times with a rinse buffer (50 mM of Tris, 100 mM of saline, and pH of 7.4). The obtained filter was dried, and then onto the dried filter, a solid scintillator, MeltiLex A (manufactured by PerkinElmer, Inc.) was fused, and the measurement and quantification were performed by using a β-counter (MicroBeta microplate scintillation counter (Trilux)).
The Ki value was calculated by the following equation.

T1 sequence (P20309 whole entry): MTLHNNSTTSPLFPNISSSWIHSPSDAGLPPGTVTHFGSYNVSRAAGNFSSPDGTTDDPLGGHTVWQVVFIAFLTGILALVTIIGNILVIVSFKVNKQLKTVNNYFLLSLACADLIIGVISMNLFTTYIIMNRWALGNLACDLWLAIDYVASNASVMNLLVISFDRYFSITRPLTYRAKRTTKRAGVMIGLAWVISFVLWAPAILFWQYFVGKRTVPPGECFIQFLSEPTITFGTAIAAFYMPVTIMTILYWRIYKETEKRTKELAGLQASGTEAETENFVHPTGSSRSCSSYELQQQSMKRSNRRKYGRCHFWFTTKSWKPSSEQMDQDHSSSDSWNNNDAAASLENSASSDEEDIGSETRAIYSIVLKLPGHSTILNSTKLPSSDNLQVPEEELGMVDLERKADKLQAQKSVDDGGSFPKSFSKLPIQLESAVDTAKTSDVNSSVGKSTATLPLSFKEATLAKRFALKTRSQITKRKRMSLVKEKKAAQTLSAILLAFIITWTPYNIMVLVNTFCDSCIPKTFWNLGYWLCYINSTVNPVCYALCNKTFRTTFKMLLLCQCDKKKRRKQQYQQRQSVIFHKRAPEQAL

Q: How did the Ki turn out when `O=C(OC1C[N+]2(CCOc3ccccc3F)CCC1CC2)C(O)(c1ccccc1)c1ccccc1` (centres unmarked) [Compound 1-4] was run?
A: The Ki was 0.114 nM.

Q: With `O=C(OC1C[N+]2(CCOc3ccccc3Cl)CCC1CC2)C(O)(c1ccccc1)c1ccccc1` (centres unmarked) [Compound 1-5] as the molecule, how does the Ki read?
A: Its Ki is 2.39 nM.

Q: How did the Ki turn out when `O=C(OC1C[N+]2(CCOc3ccccc3Br)CCC1CC2)C(O)(c1ccccc1)c1ccccc1` (centres unmarked) [Compound 1-6] was run?
A: The Ki was 0.458 nM.

Q: `O=C(OC1C[N+]2(CCCOc3ccc(F)cc3)CCC1CC2)C(O)(c1ccccc1)c1ccccc1` (centres unmarked) [Compound 1-29] was tested. Which Ki did it give?
A: The Ki was 0.19 nM.

Q: `O=C(OC1C[N+]2(CCCOc3ccc(Cl)cc3)CCC1CC2)C(O)(c1ccccc1)c1ccccc1` (centres unmarked) [Compound 1-30] was tested. Which Ki did it give?
A: The Ki was 0.084 nM.

Q: Which Ki does the source give for `O=C(OC1C[N+]2(CCCOc3ccc(Br)cc3)CCC1CC2)C(O)(c1ccccc1)c1ccccc1` (centres unmarked) [Compound 1-31] here?
A: The Ki was 0.32 nM.

Q: Which Ki does the source give for `O=C(OC1C[N+]2(CCCOc3ccc(I)cc3)CCC1CC2)C(O)(c1ccccc1)c1ccccc1` (centres unmarked) [Compound 1-32] here?
A: Its Ki is 0.22 nM.

Q: Which Ki does the source give for `Cc1ccc(OCCC[N+]23CCC(CC2)C(OC(=O)C(O)(c2ccccc2)c2ccccc2)C3)cc1` (centres unmarked) [Compound 1-33] here?
A: Its Ki is 0.058 nM.

Q: How did the Ki turn out when `O=C(OC1C[N+]2(CCCOc3ccc(C(F)(F)F)cc3)CCC1CC2)C(O)(c1ccccc1)c1ccccc1` (centres unmarked) [Compound 1-34] was run?
A: Its Ki is 2.7 nM.

Q: `COc1ccc(OCCC[N+]23CCC(CC2)C(OC(=O)C(O)(c2ccccc2)c2ccccc2)C3)cc1` (centres unmarked) [Compound 1-35] was tested. Which Ki did it give?
A: The Ki was 5.89 nM.

Q: `O=C(OC1C[N+]2(CCCOc3ccc(OC(F)(F)F)cc3)CCC1CC2)C(O)(c1ccccc1)c1ccccc1` (centres unmarked) [Compound 1-36] was tested. Which Ki did it give?
A: Its Ki is 0.39 nM.

Q: How did the Ki turn out when `O=C(OC1C[N+]2(CCOCc3ccccc3)CCC1CC2)C(O)(c1ccccc1)c1ccccc1` (centres unmarked) [Compound 1-41] was run?
A: The Ki was 0.12 nM.

Reference: US10155755B2, “Quinuclidine derivative” (LTT BIO-PHARMA CO., LTD., priority 2015, dated 2018)
